Experimental findings from patent US8436023B2, “Cyclohexyl-azetidinyl antagonists of CCR2” (Janssen Pharmaceutica N.V., priority 2010, dated 2013) are described below.

Structures are written as SMILES. pIC50: −log10 of the molar value. Counter-ions that a name gives are not always drawn.

Broadly, the pIC50 is the negative decadic logarithm of the IC50, by convention in mol/L.

This assay concerns the target T1, CCR2 (Homo sapiens, UniProt P41597).
T1 construct: host or cells: THP-1 human monocytic cells
T1 sequence (P41597 1-360 isoform P41597-2): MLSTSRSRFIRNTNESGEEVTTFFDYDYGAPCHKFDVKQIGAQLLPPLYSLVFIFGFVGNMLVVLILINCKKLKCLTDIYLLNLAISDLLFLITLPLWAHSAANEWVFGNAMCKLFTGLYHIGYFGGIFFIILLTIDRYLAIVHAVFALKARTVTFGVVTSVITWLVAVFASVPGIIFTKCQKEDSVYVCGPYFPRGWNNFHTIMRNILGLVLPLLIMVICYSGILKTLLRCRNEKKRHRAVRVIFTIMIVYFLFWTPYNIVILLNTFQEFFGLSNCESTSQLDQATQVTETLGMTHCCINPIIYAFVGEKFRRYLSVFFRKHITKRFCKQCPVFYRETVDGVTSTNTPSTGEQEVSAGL
The assay is described as follows: MCP-1 Receptor Binding Assay in THP-1 Cells. Particulars: 0.5 nM 125I labeled MCP-1, 2 hours at 30° C., less polar isomer tested where stated, read-out: Inhibition of MCP-1 Binding IC50, CCR2 Binding. On the procedure:
MCP-1 Receptor Binding Assay in THP-1 Cells
Human monocytic cell line THP-1 cells were obtained from American Type Culture Collection (Manassas, Va., USA). The THP-1 cells were grown in RPMI-1640 (RPMI: Roswell Park Memorial Institute Medium-cell culture growth media) supplemented with 10% fetal bovine serum in a humidified 5% CO2 atmosphere at 37° C. The cell density was maintained […].
THP-1 (cells were incubated with 0.5 nM ^125I labeled MCP-1 (Perkin-Elmer Life Sciences, Inc. Boston, Mass.) in the presence of varying concentrations of either unlabeled MCP-1 (R & D Systems, Minneapolis, Minn.) or test compound for 2 hours at 30° C. in a 96 well plate. Cells were then harvested onto a filter plate, dried, and 20 μL of Microscint 20 was added to each well. Plates were counted in a TopCount NXT, Microplate Scintillation & Luminescence Counter (Perkin-Elmer Life Sciences, Inc. Boston, Mass.). Blank values (buffer only) were subtracted from all values and drug treated values were compared to vehicle treated values. 1 μM cold MCP-1 was used for nonspecific binding.
Where an IC50 value was not obtained for a particular compound, the percent inhibition is provided at a test concentration of 25 μM.

As to `CCOC(=O)C1CCC(N2CC(NC(=O)CNc3nn(C)c4ccc(OC(F)(F)F)cc34)C2)CC1` (single isomer, unassigned) [Example 58], the pIC50 was 7.35.

`CCC(O)[C@H]1CC[C@@H](N2CC(NC(=O)CNc3n[nH]c4ncc(C(F)(F)F)cc34)C2)CC1` (single isomer, unassigned) [Example 105]: the pIC50 was 6.48.

In the case of `CCC(O)[C@H]1CC[C@H](N2CC(NC(=O)CNc3n[nH]c4ncc(C(F)(F)F)cc34)C2)CC1` (single isomer, unassigned) [Example 106], the pIC50 is 6.48.

With `O=C(CNc1noc2ccc(C(F)(F)F)cc12)NC1CN(C2CCC(c3ccc4c(c3)OCO4)CC2)C1` (stereo not shown) [Example 1, N-[1-(4-Benzo[1,3]dioxol-5-yl-cyclohexyl)-azetidin-3-yl]-2-(5-trifluoromethyl-benzo[d]isoxazol-3-ylamino)-acetamide], the negative logarithm of the IC50 (pIC50) is 7.44.

For the compound `COc1ccc(C2(O)CCC(N3CC(NC(=O)CNc4noc5ccc(C(F)(F)F)cc45)C3)CC2)cn1` (stereo not shown) [Example 2, N-{1-[4-Hydroxy-4-(6-methoxy-pyridin-3-yl)-cyclohexyl]-azetidin-3-yl}-2-(5-trifluoromethyl-benzo[d]isoxazol-3-ylamino)-acetamide], the negative logarithm of the IC50 (pIC50) is 7.64.

As for `O=C(CNc1noc2ccc(C(F)(F)F)cc12)NC1CN(C2CCC(O)(c3cncs3)CC2)C1` (stereo not shown) [Example 3, N-[1-(4-Hydroxy-4-thiazol-5-yl-cyclohexyl)-azetidin-3-yl]-2-(5-trifluoromethyl-benzo[d]isoxazol-3-ylamino)-acetamide], the pIC50 was 7.51.

Take `O=C(CNc1noc2ccc(C(F)(F)F)cc12)NC1CN(C2CCC(O)(c3nccs3)CC2)C1` (stereo not shown) [Example 4, N-[1-(4-Hydroxy-4-thiazol-2-yl-cyclohexyl)-azetidin-3-yl]-2-(5-trifluoromethyl-benzo[d]isoxazol-3-ylamino)-acetamide]: the pIC50 was 7.51.

Regarding `O=C(CNc1noc2ccc(C(F)(F)F)cc12)NC1CN(C2CCC(C3CCCCC3)CC2)C1` (stereo not shown) [Example 5, N-(1-Bicyclohexyl-4-yl-azetidin-3-yl)-2-(5-trifluoromethyl-benzo[d]isoxazol-3-ylamino)-acetamide], the pIC50 is 6.48.

Consider `CCOC(=O)C1CCC(N2CC(NC(=O)CNc3noc4ccc(C(F)(F)F)cc34)C2)CC1` (stereo not shown) [Example 6, 4-{3-[2-(5-Trifluoromethyl-benzo[d]isoxazol-3-ylamino)-acetylamino]-azetidin-1-yl}-cyclohexanecarboxylic acid ethyl ester], for which the pIC50 was 7.54.

Turning to `CC(C)C1CCC(N2CC(NC(=O)CNc3noc4ccc(C(F)(F)F)cc34)C2)CC1` (stereo not shown) [Example 7, N-[1-(4-Isopropyl-cyclohexyl)-azetidin-3-yl]-2-(5-trifluoromethyl-benzo[d]isoxazol-3-ylamino)-acetamide], the pIC50 was 6.77.

As to `CC(C)(C)[Si](C)(C)OC1CCC(N2CC(NC(=O)CNc3noc4ccc(C(F)(F)F)cc34)C2)CC1` (stereo not shown) [Example 8, N-{1-[4-(tert-Butyl-dimethyl-silanyloxy)-cyclohexyl]-azetidin-3-yl}-2-(5-trifluoromethyl-benzo[d]isoxazol-3-ylamino)-acetamide], the pIC50 was 5.11.

As for `O=C(CNc1noc2ccc(C(F)(F)F)cc12)NC1CN(C2CCC(O)CC2)C1` (stereo not shown) [Example 9, N-[1-(4-Hydroxy-cyclohexyl)-azetidin-3-yl]-2-(5-trifluoromethyl-benzo[d]isoxazol-3-ylamino)-acetamide], the pIC50 was 6.11.

For `CC(C)(C)OC(=O)NC1CCC(N2CC(NC(=O)CNc3noc4ccc(C(F)(F)F)cc34)C2)CC1` (stereo not shown) [Example 10, (4-{3-[2-(5-Trifluoromethyl-benzo[d]isoxazol-3-ylamino)-acetylamino]-azetidin-1-yl}-cyclohexyl)-carbamic acid tert-butyl ester], the pIC50 was 6.12.

In the case of `NC1CCC(N2CC(NC(=O)CNc3noc4ccc(C(F)(F)F)cc34)C2)CC1` (stereo not shown) [Example 11, N-[1-(4-Amino-cyclohexyl)-azetidin-3-yl]-2-(5-trifluoromethyl-benzo[d]isoxazol-3-ylamino)-acetamide TFA salt], the negative logarithm of the IC50 (pIC50) is 5.54.

Turning to `CCC1CCC(N2CC(NC(=O)CNc3noc4ccc(C(F)(F)F)cc34)C2)CC1` (stereo not shown) [Example 12, N-[1-(4-Ethyl-cyclohexyl)-azetidin-3-yl]-2-(5-trifluoromethyl-benzo[d]isoxazol-3-ylamino)-acetamide], the pIC50 was 6.41.

Consider `N#CC1CCC(N2CC(NC(=O)CNc3noc4ccc(C(F)(F)F)cc34)C2)CC1` (stereo not shown) [Example 13, N-[1-(4-Cyano-cyclohexyl)-azetidin-3-yl]-2-(5-trifluoromethyl-benzo[d]isoxazol-3-ylamino)-acetamide], for which the pIC50 was 6.35.

Take `CCCC1CCC(N2CC(NC(=O)CNc3noc4ccc(C(F)(F)F)cc34)C2)CC1` (stereo not shown) [Example 14, N-[1-(4-Propyl-cyclohexyl)-azetidin-3-yl]-2-(5-trifluoromethyl-benzo[d]isoxazol-3-ylamino)-acetamide]: the negative logarithm of the IC50 (pIC50) is 6.44.

`O=C(CNc1noc2ccc(OC(F)(F)F)cc12)NC1CN(C2CCC(c3ccc4c(c3)OCO4)CC2)C1` (stereo not shown) [Example 15, N-[1-(4-Benzo[1,3]dioxol-5-yl-cyclohexyl)-azetidin-3-yl]-2-(5-trifluoromethoxy-benzo[d]isoxazol-3-ylamino)-acetamide]: the negative logarithm of the IC50 (pIC50) is 8.00.

As for `CCOC(=O)C1CCC(N2CC(NC(=O)CNc3noc4ccc(OC(F)(F)F)cc34)C2)CC1` (stereo not shown) [Example 16, 4-{3-[2-(5-Trifluoromethoxy-benzo[d]isoxazol-3-ylamino)-acetylamino]-azetidin-1-yl}-cyclohexanecarboxylic acid ethyl ester], the negative-log IC50 (pIC50) was 7.15.

Consider `CC(C)C1CCC(N2CC(NC(=O)CNc3noc4ccc(OC(F)(F)F)cc34)C2)CC1` (stereo not shown) [Example 17, N-[1-(4-Isopropyl-cyclohexyl)-azetidin-3-yl]-2-(5-trifluoromethoxy-benzo[d]isoxazol-3-ylamino)-acetamide], for which the pIC50 was 6.12.

For `COc1ccc(C2(O)CCC(N3CC(NC(=O)CNc4nn(C)c5ccc(C(F)(F)F)cc45)C3)CC2)cn1` (stereo not shown) [Example 18, N-{1-[4-Hydroxy-4-(6-methoxy-pyridin-3-yl)-cyclohexyl]-azetidin-3-yl}-2-(1-methyl-5-trifluoromethyl-1H-indazol-3-ylamino)-acetamide], the pIC50 was 8.03.

Take `Cn1nc(NCC(=O)NC2CN(C3CCC(O)(c4cccnc4)CC3)C2)c2cc(C(F)(F)F)ccc21` (stereo not shown) [Example 19, N-[1-(4-Hydroxy-4-pyridin-3-yl-cyclohexyl)-azetidin-3-yl]-2-(1-methyl-5-trifluoromethyl-1H-indazol-3-ylamino)-acetamide]: the negative logarithm of the IC50 (pIC50) is 7.25.

For `CN(C)c1cccc(C2(O)CCC(N3CC(NC(=O)CNc4nn(C)c5ccc(C(F)(F)F)cc45)C3)CC2)c1` (stereo not shown) [Example 20, N-{1-[4-(3-Dimethylamino-phenyl)-4-hydroxy-cyclohexyl]-azetidin-3-yl}-2-(1-methyl-5-trifluoromethyl-1H-indazol-3-ylamino)-acetamide], the negative logarithm of the IC50 (pIC50) was 8.32.

`Cn1nc(NCC(=O)NC2CN(C3CCC(O)(c4cncs4)CC3)C2)c2cc(C(F)(F)F)ccc21` (stereo not shown) [Example 21, N-[1-(4-Hydroxy-4-thiazol-5-yl-cyclohexyl)-azetidin-3-yl]-2-(1-methyl-5-trifluoromethyl-1H-indazol-3-ylamino)-acetamide]: the pIC50 was 7.55.

With `Cn1nc(NCC(=O)NC2CN(C3CCC(O)(c4nccs4)CC3)C2)c2cc(C(F)(F)F)ccc21` (stereo not shown) [Example 22, N-[1-(4-Hydroxy-4-thiazol-2-yl-cyclohexyl)-azetidin-3-yl]-2-(1-methyl-5-trifluoromethyl-1H-indazol-3-ylamino)-acetamide], the pIC50 is 7.89.

Regarding `CCc1ncc(C2(O)CCC(N3CC(NC(=O)CNc4nn(C)c5ccc(C(F)(F)F)cc45)C3)CC2)s1` (stereo not shown) [Example 23, N-{1-[4-(2-Ethyl-thiazol-5-yl)-4-hydroxy-cyclohexyl]-azetidin-3-yl}-2-(1-methyl-5-trifluoromethyl-1H-indazol-3-ylamino)-acetamide], the pIC50 is 6.74.

For the compound `CC(C)c1ncc(C2(O)CCC(N3CC(NC(=O)CNc4nn(C)c5ccc(C(F)(F)F)cc45)C3)CC2)s1` (stereo not shown) [Example 24, N-{1-[4-Hydroxy-4-(2-isopropyl-thiazol-5-yl)-cyclohexyl]-azetidin-3-yl}-2-(1-methyl-5-trifluoromethyl-1H-indazol-3-ylamino)-acetamide], the pIC50 is 8.28.

Regarding `Cn1cc(C2(O)CCC(N3CC(NC(=O)CNc4nn(C)c5ccc(C(F)(F)F)cc45)C3)CC2)cn1` (stereo not shown) [Example 25, N-{1-[4-Hydroxy-4-(1-methyl-1H-pyrazol-4-yl)-cyclohexyl]-azetidin-3-yl}-2-(1-methyl-5-trifluoromethyl-1H-indazol-3-ylamino)-acetamide], the pIC50 was 6.70.
